US10023544B2, “Heterocyclic compound” (Takeda Pharmaceutical Company Limited, priority 2014, dated 2018)
Structures can show the parent of a compound that is named as a salt.

How the values were obtained:
[1] = target: T1, Human recombinant enteropeptidase (Homo sapiens, UniProt P98073); experiment: Human enteropeptidase inhibitory activity; format: biochemical; settings: 3.3 uM test compound; fluorescence intensity 2 hours after start of reaction; read-out: Inhibition rate at 3.3 uM (%)
T1 construct: purchased ITSI-Biosciences, LLC #REN-260
Method: Human recombinant enteropeptidase (#REN-260, ITSI-Biosciences, LLC) was diluted with an assay buffer (50 mM Tricine (pH 8.0), 0.01 (w/v) % Tween 20, 10 mM CaCl2) to prepare a 24 mU/mL enzyme solution. Subsequently, 5FAM-Abu-Gly-Asp-Asp-Asp-Lys-Ile-Val-Gly-Gly-Lys(CPQ2)-Lys-Lys-NH2 (purity: 97.2%, CPC Scientific, Inc.) produced according to a synthesis method known per se was diluted with an assay buffer to prepare a 2.1 uM (“u” represents “micro”) substrate solution. Each test compound was dissolved in DMSO to prepare a 1 mM solution, which was then diluted 100-fold with an assay buffer to prepare a compound solution. The compound solution (5 uL/well) and the substrate solution (5 uL/well) were added to a 384-well black plate (#784076, Greiner Bio-One) and mixed. Then, the enzyme solution (5 uL/well) was added to the plate and mixed to start reaction. The fluorescence intensity was measured at an excitation wavelength of 485 nm and a fluorescence wavelength of 535 nm using a fluorescence plate reader EnVision (PerkinElmer Inc.). Also, the same reaction as above was performed except that the test compound was not added (test compound non-supplemented group). In addition, the same reaction as above was performed except that neither the test compound nor the enzyme was added (control group). The inhibition rate was calculated from the fluorescence intensity 2 hours after the start of the reaction according to the following equation: Inhibition rate (%)=(1−(Fluorescence intensity of the test compound supplemented group−Fluorescence intensity of the control group)/(Fluorescence intensity of the test compound non-supplemented group−Fluorescence intensity of the control group))×100

HFD-fed mouse = experiment: Test on elevation of protein concentration in feces using HFD-fed mouse; format: in vivo; settings: 10 mg/kg oral, whole feces at day 1 of administration, mean ± SD
Method: A 0.5% methylcellulose suspension (test compound administered group, 5 mice per group) containing each test compound (10 mg/kg) or a 0.5% methylcellulose suspension (test compound non-administered group (vehicle), 5 mice per group) was orally administered to each high fat diet-fed (HFD-fed) mouse (D12079B diet, male, 15 weeks old), and the whole feces were recovered at day 1 of administration. The dry feces were dissolved in a 0.5 N aqueous sodium hydroxide solution. After centrifugation at 12,000 rpm, a protein concentration was quantified (Lowry method) using the supernatant to calculate a protein concentration (mg/g feces) in 1 g of feces. The mean and standard deviation of each group are shown below.

DIO mouse = experiment: Test on antiobesity action using DIO mouse; format: in vivo; settings: mean ± SD; for Body weight (g) At start of administration: baseline
Method: A 0.5% methylcellulose suspension (test compound administered group, 5 or 6 mice per group) containing each test compound (20 or 60 mg/kg) or a 0.5% methylcellulose suspension (test compound non-administered group (vehicle), 6 mice per group) was orally administered to each diet-induced obesity (DIO) mouse (D12079B diet, male, 46 weeks old) once a day for 4 weeks. The means of body weights and standard deviations at the start of administration and after 4-week continuous administration are shown below.

T1 sequence (P98073 whole entry): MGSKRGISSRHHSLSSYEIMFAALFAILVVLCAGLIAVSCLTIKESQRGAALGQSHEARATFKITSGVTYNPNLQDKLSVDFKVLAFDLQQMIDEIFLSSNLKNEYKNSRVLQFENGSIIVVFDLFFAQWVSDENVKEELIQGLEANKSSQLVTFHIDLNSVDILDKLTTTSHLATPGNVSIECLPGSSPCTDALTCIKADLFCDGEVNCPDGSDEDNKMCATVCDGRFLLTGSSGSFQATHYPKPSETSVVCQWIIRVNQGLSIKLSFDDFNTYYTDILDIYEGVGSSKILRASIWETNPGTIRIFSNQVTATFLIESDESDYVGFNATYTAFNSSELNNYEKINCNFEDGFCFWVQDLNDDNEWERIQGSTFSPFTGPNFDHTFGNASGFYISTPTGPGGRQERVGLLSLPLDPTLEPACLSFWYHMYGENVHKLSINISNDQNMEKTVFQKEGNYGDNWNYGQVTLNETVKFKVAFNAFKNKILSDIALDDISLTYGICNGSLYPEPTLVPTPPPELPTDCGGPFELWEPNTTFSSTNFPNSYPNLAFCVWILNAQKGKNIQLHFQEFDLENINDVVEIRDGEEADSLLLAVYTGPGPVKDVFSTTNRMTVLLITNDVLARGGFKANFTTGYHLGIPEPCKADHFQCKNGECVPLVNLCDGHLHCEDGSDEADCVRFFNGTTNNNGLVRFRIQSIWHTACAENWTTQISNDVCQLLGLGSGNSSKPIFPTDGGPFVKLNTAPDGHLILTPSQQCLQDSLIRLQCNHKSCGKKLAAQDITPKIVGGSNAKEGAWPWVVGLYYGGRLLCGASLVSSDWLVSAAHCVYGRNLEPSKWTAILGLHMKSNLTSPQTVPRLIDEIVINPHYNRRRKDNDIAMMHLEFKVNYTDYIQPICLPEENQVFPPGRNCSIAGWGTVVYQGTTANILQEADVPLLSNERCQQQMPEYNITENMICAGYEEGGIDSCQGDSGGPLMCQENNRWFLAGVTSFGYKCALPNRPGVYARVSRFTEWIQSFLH

Structure (SMILES)	inhibition at 3.3 µM [1] [%]	also measured
N=C(N)Nc1ccc(C(=O)Oc2cccc(C3=NO[C@@](CC(=O)O)(C(=O)O)C3)c2)cc1 [Example 5, (5S)-3-(3-((4-Carbamimidamidobenzoyl)oxy)phenyl)-5-(carboxymethyl)-4,5-dihydro-1,2-oxazole-5-carboxylic acid]	101	Protein concentration in feces (HFD-fed mouse): 144.5 ± 26.6 mg/g
N=C(N)Nc1ccc(C(=O)Oc2ccc(C3CCN(C(=O)CCC(=O)N[C@@H](CC(=O)O)C(=O)O)CC3)c(C3=NOC(CC(=O)O)(CC(=O)O)C3)c2)cc1 [Example 21, N-(4-(4-(2-(5,5-bis(carboxymethyl)-4,5-dihydro-1,2-oxazol-3-yl)-4-((4-carbamimidamidobenzoyl)oxy)phenyl)piperidin-1-yl)-4-oxobutanoyl)-L-aspartic acid]	100	
N=C(N)Nc1ccc(C(=O)Oc2ccc(CCC(=O)N[C@@H](CC(N)=O)C(=O)O)c(C3=NOC(CC(=O)O)(CC(=O)O)C3)c2)cc1 [Example 28, N^2-(3-(2-(5,5-bis(carboxymethyl)-4,5-dihydro-1,2-oxazol-3-yl)-4-((4-carbamimidamidobenzoyl)oxy)phenyl)propanoyl)-L-asparagine]	100	
N=C(N)Nc1ccc(C(=O)Oc2ccc(C3CCCCC3)c(C3=NOC(CC(=O)O)(C(=O)O)C3)c2)cc1 (stereo not drawn) [Example 8, 3-(5-((4-Carbamimidamidobenzoyl)oxy)-2-cyclohexylphenyl)-5-(carboxymethyl)-4,5-dihydro-1,2-oxazole-5-carboxylic acid trifluoroacetate]	101	
N=C(N)Nc1ccc(C(=O)Oc2cccc(C3=NO[C@](CC(=O)O)(C(=O)O)C3)c2)cc1 [Example 1, (5R)-3-(3-((4-Carbamimidamidobenzoyl)oxy)phenyl)-5-(carboxymethyl)-4,5-dihydro-1,2-oxazole-5-carboxylic acid]	101	Body weight (g) After 4-week continuous administration (DIO mouse; 20 mg/kg oral once a day for 4 weeks): 43.1 ± 3.5 g; Body weight (g) At start of administration (DIO mouse; 20 mg/kg oral once a day): 48.9 ± 2.0 g; Body weight (g) After 4-week continuous administration (DIO mouse; 60 mg/kg oral once a day for 4 weeks): 40.2 ± 2.1 g; Body weight (g) At start of administration (DIO mouse; 60 mg/kg oral once a day): 48.9 ± 2.5 g; Protein concentration in feces (HFD-fed mouse): 151.5 ± 22.8 mg/g
N=C(N)Nc1ccc(C(=O)Oc2ccc(CCC(=O)N[C@@H](CC(=O)O)C(=O)O)c(C3=NOC(CC(=O)O)(C(=O)O)C3)c2)cc1 (stereo partly drawn) [Example 18, N-(3-(4-((4-Carbamimidamidobenzoyl)oxy)-2-(5-carboxy-5-(carboxymethyl)-4,5-dihydro-1,2-oxazol-3-yl)phenyl)propanoyl)-L-aspartic acid trifluoroacetate]	100	
CC(C)(C)C1CCC(c2ccc(OC(=O)c3ccc(NC(=N)N)cc3)cc2C2=NOC(CC(=O)O)(C(=O)O)C2)CC1 (stereo not drawn) [Example 10, 3-(2-(4-tert-butylcyclohexyl)-5-((4-carbamimidamidobenzoyl)oxy)phenyl)-5-(carboxymethyl)-4,5-dihydro-1,2-oxazole-5-carboxylic acid]	101	
CC(C)(C)C1CCC(c2cc(OC(=O)c3ccc(NC(=N)N)cc3)cc(C3=NOC(CC(=O)O)(C(=O)O)C3)c2)CC1 (stereo not drawn) [Example 12, 3-(3-(4-tert-butylcyclohexyl)-5-((4-carbamimidamidobenzoyl)oxy)phenyl)-5-(carboxymethyl)-4,5-dihydro-1,2-oxazole-5-carboxylic acid (trans or cis form)]	101	
CS(=O)(=O)CCNC(=O)CCc1ccc(OC(=O)c2ccc(NC(=N)N)cc2)cc1C1=NOC(CC(=O)O)(CC(=O)O)C1 [Example 27, 2,2′-(3-(5-((4-carbamimidamidobenzoyl)oxy)-2-(3-((2-(methylsulfonyl)ethyl)amino)-3-oxopropyl)phenyl)-4,5-dihydro-1,2-oxazole-5,5-diyl)diacetic acid]	100	
